# Source: patent publication US5935805A, “Measurement of bilirubin albumin binding” (Research Corporation Technologies, Inc., priority 1997, dated 1999)
# Values joined by “and” are separate entries in the source; they are usually repeats but may differ in a detail not shown here. Equal entries are not always repeated. Where two headings read alike, the source gives them in different places.
# Tests used:
# [1] = target: T1, albumin (Homo sapiens, UniProt P02768); test: Oxidation of bilirubin-14C/defatted albumin by peroxidase and peroxide, Sephadex G25 column radioactivity; format: biochemical; details: for Bilirubin: 50 μg/mL peroxidase, 1000 μmol/L ethyl hydrogen peroxide; for Eluate counts/min: albumin fraction from Sephadex G25; for Bilirubin (% time 0): 278 µM
# Experimental: A bilirubin-^14 C/defatted albumin solution (molar ratio 0.42) containing 278 μmol/L bilirubin and 60,839 counts per minute, 50 μg/mL peroxidase, and 1000 μmol/L ethyl hydrogen peroxide were allowed to react for 8 minutes. At various times (0 to 8 minutes), 100 μl of reaction mix was removed and added to 10 μl of 100 mmol/L Na2 S to stop the reaction. The bilirubin concentration was calculated from the absorption at 460 nm after dilution to 1.0 ml with 0.055M Somensen's buffer, and the entire diluted reaction mixture was then placed on a Sephadex G25 0.5×5 cm (diameter×length) column prepared according to the manufacturer's instructions. The albumin fraction was then eluted with buffer. The bilirubin remaining and the radioactivity of the eluate were measured at each time interval to determine whether the oxidation products remained bound to albumin during the reaction and therefore passed through the Sephadex column with the albumin.
# [2] = target: T1, albumin; details: lowest established value; cited from earlier work
# [3] = target: T1, albumin; test: Bilirubin-albumin binding isotherm in minimally diluted newborn plasma titrated with bilirubin; parameters: Plasma from a partial exchange transfusion performed in a term newborn with polycythemia; from tissue; host or cells: plasma of a term newborn (partial exchange transfusion); details: dilution 1:1.8, two-site model, non-linear regression
# Description: Plasma from a partial exchange transfusion performed in a term newborn with polycythemia was titrated with bilirubin and the unconjugated unbound bilirubin determined by the present method to assess the bilirubin-albuminbinding isotherm in minimally diluted plasma. Non-linear regression used to determine the equilibrium binding constants, and a two-site model with interaction between sites best fit the binding isotherm.
# [4] = test system: newborns; details: displaces bilirubin from albumin, blood level 15 mg/dL reported; cited from earlier work
# [5] = target: T1, albumin; test: Unbound bilirubin in bilirubin-defatted albumin solution with sulfisoxazole, Jacobsen and Wennberg method at 1:41.8 dilution; format: binding; details: 15 mg/dL sulfisoxazole; bilirubin 20 mg/dL, defatted albumin 3.0 g/dL; dilution 1:41.8; mean and SD of 3 replicates
# Experimental: (§1) A 0.1 cm path cuvette was employed to allow direct spectral analysis of the unbound bilirubin at the 1:1.8 dilution.
# The Jacobsen and Wennberg method was performed as above using a 1 cm path cuvette. The […] technique was performed by stopping the reaction after five minutes with 1.0 ml of diazo-A and then adding 1.0 ml of 90% methanol.
# [6] = target: T1, albumin; test: Unbound bilirubin in bilirubin-defatted albumin solution with sulfisoxazole, peroxidase method of the instant invention at 1:1.8 dilution; format: binding; details: 15 mg/dL sulfisoxazole; bilirubin 20 mg/dL, defatted albumin 3.0 g/dL; dilution 1:1.8; mean and SD of 3 replicates
# Description: as §1
# [7] = test system: horseradish peroxidase; test: Standardization of catalyzing reagent: peroxidase catalyzed oxidation of bilirubin by peroxide in the absence of albumin; format: biochemical; details: about 21° C.
# Experimental: This is done by determining the Kp, i.e., the first order rate constant for the oxidation of bilirubin by the oxidizing reagent (usually peroxide) in the presence of the catalyzing reagent. The Kp is determined by standard techniques known in the art, utilizing known concentrations of unbound unconjugated bilirubin. […] If B is the unconjugated unoxidized bilirubin concentration at time t, P is the concentration of the catalyzing reagent e.g., peroxidase, Bo, and Bt are the initial unconjugated bilirubin concentration and the unconjugated bilirubin concentration at time t, respectively, and the concentration of the oxidizing reagent e.g., peroxide is not rate limiting, then at concentrations of bilirubin that are well below the Km for peroxidase catalyzed peroxide oxidation of bilirubin, (for HRP, this value is .congruent.70 uMol at 37° C.), then
# dB/dt=-Kp ·P·B EQ.3
# Integrating Equation 3 between the limits t=o and t=t, wherein t is the predetermined time referred to hereinabove provides [formula] Thus, in accordance with EQ.4, the value of Kp is determined if a known concentration of peroxidase is reacted with an excess amount of peroxide with a known amount of unbound unconjugated bilirubin.
# T1 sequence (P02768 25-609): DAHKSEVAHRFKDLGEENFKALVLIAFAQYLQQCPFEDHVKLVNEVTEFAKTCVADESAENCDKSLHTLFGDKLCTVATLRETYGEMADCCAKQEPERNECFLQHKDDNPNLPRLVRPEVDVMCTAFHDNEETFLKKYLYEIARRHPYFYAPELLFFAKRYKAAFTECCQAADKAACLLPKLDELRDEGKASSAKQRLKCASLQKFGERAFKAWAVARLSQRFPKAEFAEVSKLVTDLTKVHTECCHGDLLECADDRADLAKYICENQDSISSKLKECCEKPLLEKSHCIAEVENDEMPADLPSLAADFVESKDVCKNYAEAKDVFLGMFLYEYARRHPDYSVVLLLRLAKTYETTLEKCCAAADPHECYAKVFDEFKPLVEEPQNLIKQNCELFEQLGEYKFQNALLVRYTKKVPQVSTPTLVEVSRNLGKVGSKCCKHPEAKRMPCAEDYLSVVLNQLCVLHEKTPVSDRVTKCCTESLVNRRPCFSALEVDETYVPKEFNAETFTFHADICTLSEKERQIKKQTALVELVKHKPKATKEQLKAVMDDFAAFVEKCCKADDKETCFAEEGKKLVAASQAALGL
molecule,measurement,setting,value
"C=CC1=C(C)/C(=C/c2[nH]c(Cc3[nH]c(/C=C4\NC(=O)C(C)=C4C=C)c(C)c3CCC(=O)O)c(CCC(=O)O)c2C)NC1=O [bilirubin, bilirubin IXa]",Eluate counts/min (% time 0),[1]; reaction time 0 min,100 % time 0
same,Bilirubin,[1]; reaction time 0 min,4.86 µmol/L and 4.93 µmol/L
same,Eluate counts/min,[1]; reaction time 0 min,"57,675 counts/min and 57,692 counts/min"
same,Eluate counts/min (% time 0),[1]; reaction time 4 min,97 % time 0 and 92 % time 0
same,Bilirubin,[1]; reaction time 4 min,3.07 µmol/L and 3.36 µmol/L
same,Bilirubin (% time 0),"[1]; reaction time 4 min, 4 min",63 % time 0 and 68 % time 0
same,Eluate counts/min,[1]; reaction time 4 min,"55,797 counts/min and 53,070 counts/min"
same,Eluate counts/min (% time 0),[1]; reaction time 6 min,87 % time 0 and 82 % time 0
same,Bilirubin,[1]; reaction time 6 min,2.70 µmol/L and 2.60 µmol/L
same,Bilirubin (% time 0),"[1]; reaction time 6 min, 6 min",55 % time 0 and 53 % time 0
same,Eluate counts/min,[1]; reaction time 6 min,"50,119 counts/min and 47,500 counts/min"
same,Eluate counts/min (% time 0),[1]; reaction time 8 min,87 % time 0 and 86 % time 0
same,Bilirubin,[1]; reaction time 8 min,2.14 µmol/L and 2.24 µmol/L
same,Eluate counts/min,[1]; reaction time 8 min,"50,174 counts/min and 49,405 counts/min"
same,"First order dissociation rate constant k-1 of the bilirubin-albumin complex, lowest value",[2],about 0.4 /min
same,Kd,"[3]; read-out: Equilibrium dissociation constant, 1:1 bilirubin/albumin species",59 nM
same,Kd,"[3]; read-out: Equilibrium dissociation constant, 2:1 bilirubin/albumin species",30.3 nM
Cc1noc(NS(=O)(=O)c2ccc(N)cc2)c1C [sulfisoxazole],Bilirubin toxicity when given to newborns,[4],development of bilirubin toxicity
same,CONCENTRATION OF UNBOUND BILIRUBIN + Sulfa,[5],0.092 ± .003 μm
same,CONCENTRATION OF UNBOUND BILIRUBIN + Sulfa,[6],0.285 ± 0.03 μm
horseradish peroxidase,"Kp, first order rate constant for catalyzed oxidation of bilirubin",[7],about eight
